Data from patent US11427574B2, “Compounds for treating Rac-GTPase mediated disorder” (Children's Medical Center Corporation, priority 2015, dated 2022).

Assays:
LIMK1 = LIMK1 (Homo sapiens, UniProt P53667); assay: Kinase screening; format: biochemical
Method: (§1) Compound 1 was tested for its efficacy in inhibiting activities of 40 kinases and binding with 12 GPCRs both as an antagonist and an agonist.

MYLK (MLCK) = MYLK (MLCK) (Homo sapiens, UniProt Q15746); assay: Kinase screening; format: biochemical
Method: as §1

FRAP1 (mTOR) = FRAP1 (mTOR) (Homo sapiens, UniProt P42345); assay: Kinase screening; format: biochemical
Method: as §1

AKT1 (PKB alpha) = AKT1 (PKB alpha) (Homo sapiens, UniProt P31749); assay: Kinase screening; format: biochemical
Method: as §1

PAK2 (PAK65) = PAK2 (PAK65) (Homo sapiens, UniProt Q13177); assay: Kinase screening; format: biochemical
Method: as §1

JAK2 = JAK2 (Homo sapiens, UniProt O60674); assay: Kinase screening; format: biochemical
JAK2, sequence (O60674 whole entry, species assumed): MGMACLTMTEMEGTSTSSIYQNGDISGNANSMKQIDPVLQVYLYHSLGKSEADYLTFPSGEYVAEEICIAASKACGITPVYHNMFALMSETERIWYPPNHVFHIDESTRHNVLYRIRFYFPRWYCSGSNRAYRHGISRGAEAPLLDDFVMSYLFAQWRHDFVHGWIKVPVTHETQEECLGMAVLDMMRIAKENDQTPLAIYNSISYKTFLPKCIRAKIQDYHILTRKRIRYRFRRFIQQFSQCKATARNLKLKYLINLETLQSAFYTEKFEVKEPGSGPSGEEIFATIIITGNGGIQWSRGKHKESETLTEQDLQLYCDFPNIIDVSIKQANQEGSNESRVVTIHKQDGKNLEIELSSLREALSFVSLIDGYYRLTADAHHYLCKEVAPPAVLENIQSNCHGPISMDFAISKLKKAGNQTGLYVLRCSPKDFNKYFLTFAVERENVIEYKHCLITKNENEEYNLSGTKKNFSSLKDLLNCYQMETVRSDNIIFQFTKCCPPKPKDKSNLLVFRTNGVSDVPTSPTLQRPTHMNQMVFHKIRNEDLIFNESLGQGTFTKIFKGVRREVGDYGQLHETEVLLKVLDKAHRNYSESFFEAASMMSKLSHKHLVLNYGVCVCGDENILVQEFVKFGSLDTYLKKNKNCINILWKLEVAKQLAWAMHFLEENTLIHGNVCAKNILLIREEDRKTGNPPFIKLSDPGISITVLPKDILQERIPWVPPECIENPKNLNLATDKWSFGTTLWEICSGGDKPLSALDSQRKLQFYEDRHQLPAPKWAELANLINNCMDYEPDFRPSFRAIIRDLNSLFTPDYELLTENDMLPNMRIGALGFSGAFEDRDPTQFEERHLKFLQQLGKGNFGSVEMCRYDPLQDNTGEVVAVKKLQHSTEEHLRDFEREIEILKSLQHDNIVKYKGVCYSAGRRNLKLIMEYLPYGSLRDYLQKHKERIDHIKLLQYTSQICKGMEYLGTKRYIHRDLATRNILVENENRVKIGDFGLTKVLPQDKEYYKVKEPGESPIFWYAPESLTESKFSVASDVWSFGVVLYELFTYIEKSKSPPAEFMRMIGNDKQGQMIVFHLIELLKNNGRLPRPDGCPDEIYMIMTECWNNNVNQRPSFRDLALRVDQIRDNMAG
Method: as §1

IGF1R = IGF1R (Homo sapiens, UniProt P08069); assay: Kinase screening; format: biochemical
Method: as §1

PAK6 = PAK6 (Homo sapiens, UniProt Q9NQU5); assay: Kinase screening; format: biochemical
Method: as §1

[1] = target: PIK3CD/PIK3R1 (p110 delta/p85 alpha) (Homo sapiens, UniProt O00329); assay: Kinase screening; format: biochemical
Method: as §1

ROCK2 = ROCK2 (Homo sapiens, UniProt O75116); assay: Kinase screening; format: biochemical
Method: as §1

CDC42 BPB (MRCKB) = CDC42 BPB (MRCKB) (Homo sapiens, UniProt Q9Y5S2); assay: Kinase screening; format: biochemical
CDC42 BPB (MRCKB), sequence (Q9Y5S2 whole entry, species assumed): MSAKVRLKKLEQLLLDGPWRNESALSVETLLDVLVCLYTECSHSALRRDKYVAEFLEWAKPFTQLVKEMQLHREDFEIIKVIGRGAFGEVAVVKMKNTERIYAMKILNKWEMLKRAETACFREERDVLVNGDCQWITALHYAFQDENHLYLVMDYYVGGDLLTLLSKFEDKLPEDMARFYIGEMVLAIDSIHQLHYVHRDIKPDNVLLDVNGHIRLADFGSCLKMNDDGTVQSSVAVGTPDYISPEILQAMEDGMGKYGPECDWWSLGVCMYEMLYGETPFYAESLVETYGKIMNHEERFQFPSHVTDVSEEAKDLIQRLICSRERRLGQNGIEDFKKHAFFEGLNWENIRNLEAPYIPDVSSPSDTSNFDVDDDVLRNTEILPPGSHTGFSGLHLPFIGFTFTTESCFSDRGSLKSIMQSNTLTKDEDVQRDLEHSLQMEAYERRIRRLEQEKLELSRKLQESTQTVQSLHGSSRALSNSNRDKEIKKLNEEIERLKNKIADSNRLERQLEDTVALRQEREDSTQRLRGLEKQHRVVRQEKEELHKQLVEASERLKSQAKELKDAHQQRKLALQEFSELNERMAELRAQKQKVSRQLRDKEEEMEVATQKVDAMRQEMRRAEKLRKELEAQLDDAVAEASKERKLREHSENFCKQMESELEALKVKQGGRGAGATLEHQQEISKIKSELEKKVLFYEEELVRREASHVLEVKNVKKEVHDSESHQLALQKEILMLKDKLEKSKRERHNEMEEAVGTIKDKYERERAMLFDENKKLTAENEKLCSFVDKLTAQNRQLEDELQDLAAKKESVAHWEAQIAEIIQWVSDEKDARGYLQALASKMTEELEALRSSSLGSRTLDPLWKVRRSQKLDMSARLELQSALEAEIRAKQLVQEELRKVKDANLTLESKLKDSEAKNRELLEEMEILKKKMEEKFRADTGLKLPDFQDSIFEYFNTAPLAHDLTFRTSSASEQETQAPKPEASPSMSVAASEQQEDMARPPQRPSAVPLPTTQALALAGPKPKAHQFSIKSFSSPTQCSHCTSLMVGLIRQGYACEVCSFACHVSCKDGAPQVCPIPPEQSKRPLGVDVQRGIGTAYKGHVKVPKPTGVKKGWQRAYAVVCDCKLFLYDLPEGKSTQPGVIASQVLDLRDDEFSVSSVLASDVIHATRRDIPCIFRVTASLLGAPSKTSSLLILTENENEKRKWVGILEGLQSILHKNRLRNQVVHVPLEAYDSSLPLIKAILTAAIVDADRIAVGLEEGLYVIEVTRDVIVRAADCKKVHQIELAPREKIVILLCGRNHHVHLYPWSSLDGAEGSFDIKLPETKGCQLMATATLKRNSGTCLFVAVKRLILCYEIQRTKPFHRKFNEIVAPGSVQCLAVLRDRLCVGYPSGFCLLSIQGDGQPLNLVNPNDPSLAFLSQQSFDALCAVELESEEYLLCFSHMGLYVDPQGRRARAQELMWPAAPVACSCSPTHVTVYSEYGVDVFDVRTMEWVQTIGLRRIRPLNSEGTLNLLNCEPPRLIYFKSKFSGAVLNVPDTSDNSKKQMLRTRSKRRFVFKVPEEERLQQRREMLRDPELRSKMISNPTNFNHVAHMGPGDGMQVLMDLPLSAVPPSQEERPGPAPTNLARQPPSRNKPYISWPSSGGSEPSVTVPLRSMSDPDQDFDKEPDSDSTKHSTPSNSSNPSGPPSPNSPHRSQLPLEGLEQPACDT
Method: as §1

CDK1/cyclin B = CDK1/cyclin B (Homo sapiens, UniProt P06493); assay: Kinase screening; format: biochemical
Method: as §1

PIK3C2A (PI3K-C2 alpha) = PIK3C2A (PI3K-C2 alpha) (Homo sapiens, UniProt O00443); assay: Kinase screening; format: biochemical
Method: as §1

MAPK8 (JNK1) = MAPK8 (JNK1) (Homo sapiens, UniProt P45983); assay: Kinase screening; format: biochemical
Method: as §1

KIT = KIT (Homo sapiens, UniProt P10721); assay: Kinase screening; format: biochemical
Method: as §1

ABL1 = ABL1 (Homo sapiens, UniProt P00519); assay: Kinase screening; format: biochemical
Method: as §1

PAK7 (KIAA1264) = PAK7 (KIAA1264) (Homo sapiens, UniProt Q9P286); assay: Kinase screening; format: biochemical
PAK7 (KIAA1264), sequence (Q9P286 whole entry, species assumed): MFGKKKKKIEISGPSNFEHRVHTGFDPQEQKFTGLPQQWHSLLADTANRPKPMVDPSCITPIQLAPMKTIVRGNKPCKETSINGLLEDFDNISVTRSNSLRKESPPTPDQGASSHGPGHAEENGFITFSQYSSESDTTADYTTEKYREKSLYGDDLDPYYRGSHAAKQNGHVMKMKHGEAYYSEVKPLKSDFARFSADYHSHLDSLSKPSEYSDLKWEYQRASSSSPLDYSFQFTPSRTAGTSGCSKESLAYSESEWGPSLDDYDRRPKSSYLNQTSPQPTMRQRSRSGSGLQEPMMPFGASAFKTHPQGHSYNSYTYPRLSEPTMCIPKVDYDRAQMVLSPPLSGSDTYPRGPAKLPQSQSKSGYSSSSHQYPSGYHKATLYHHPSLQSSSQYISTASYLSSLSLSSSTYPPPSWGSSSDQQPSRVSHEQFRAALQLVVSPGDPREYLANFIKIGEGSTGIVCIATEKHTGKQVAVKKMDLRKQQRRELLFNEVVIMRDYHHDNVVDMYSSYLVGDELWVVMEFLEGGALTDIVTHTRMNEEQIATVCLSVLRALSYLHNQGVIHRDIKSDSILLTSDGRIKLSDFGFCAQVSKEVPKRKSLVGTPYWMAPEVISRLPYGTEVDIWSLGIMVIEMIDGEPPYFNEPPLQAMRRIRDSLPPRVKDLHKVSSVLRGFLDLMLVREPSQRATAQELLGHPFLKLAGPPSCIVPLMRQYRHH
Method: as §1

JAK3 = JAK3 (Homo sapiens, UniProt P52333); assay: Kinase screening; format: biochemical
Method: as §1

MAPK3 (ERK1) = MAPK3 (ERK1) (Homo sapiens, UniProt P27361); assay: Kinase screening; format: biochemical
Method: as §1

EPHB1 = EPHB1 (Homo sapiens, UniProt P54762); assay: Kinase screening; format: biochemical
Method: as §1

MAP3K2 (MEKK2) = MAP3K2 (MEKK2) (Homo sapiens, UniProt Q9Y2U5); assay: Kinase screening; format: biochemical
Method: as §1

AKT2 (PKB beta) = AKT2 (PKB beta) (Homo sapiens, UniProt P31751); assay: Kinase screening; format: biochemical
Method: as §1

EGFR (ErbB1) = EGFR (ErbB1) (Homo sapiens, UniProt P00533); assay: Kinase screening; format: biochemical
Method: as §1

PAK1 = PAK1 (Homo sapiens, UniProt Q13153); assay: Kinase screening; format: biochemical
Method: as §1

CDC42 BPA (MRCKA) = CDC42 BPA (MRCKA) (Homo sapiens, UniProt Q5VT25); assay: Kinase screening; format: biochemical
Method: as §1

MAP2K2 (MEK2) = MAP2K2 (MEK2) (Homo sapiens, UniProt P36507); assay: Kinase screening; format: biochemical
Method: as §1

SRC = SRC (Homo sapiens, UniProt P12931); assay: Kinase screening; format: biochemical
Method: as §1

PAK4 = PAK4 (Homo sapiens, UniProt O96013); assay: Kinase screening; format: biochemical
Method: as §1

[2] = target: PIK3CA/PIK3R1 (p110 alpha/p85 alpha) (Homo sapiens, UniProt P42336); assay: Kinase screening; format: biochemical
Method: as §1

PDGFRA (PDGFR alpha) = PDGFRA (PDGFR alpha) (Homo sapiens, UniProt P16234); assay: Kinase screening; format: biochemical
Method: as §1

FLT3 = FLT3 (Homo sapiens, UniProt P36888); assay: Kinase screening; format: biochemical
Method: as §1

SYK = SYK (Homo sapiens, UniProt P43405); assay: Kinase screening; format: biochemical
Method: as §1

PIK3C3 (hVPS34) = PIK3C3 (hVPS34) (Homo sapiens, UniProt Q8NEB9); assay: Kinase screening; format: biochemical
Method: as §1

CDK5/p25 = CDK5/p25 (Homo sapiens, UniProt Q00535); assay: Kinase screening; format: biochemical
Method: as §1

PAK3 = PAK3 (Homo sapiens, UniProt O75914); assay: Kinase screening; format: biochemical
Method: as §1

JAK1 = JAK1 (Homo sapiens, UniProt P23458); assay: Kinase screening; format: biochemical
Method: as §1

ROCK1 = ROCK1 (Homo sapiens, UniProt Q13464); assay: Kinase screening; format: biochemical
ROCK1, sequence (Q13464 whole entry, species assumed): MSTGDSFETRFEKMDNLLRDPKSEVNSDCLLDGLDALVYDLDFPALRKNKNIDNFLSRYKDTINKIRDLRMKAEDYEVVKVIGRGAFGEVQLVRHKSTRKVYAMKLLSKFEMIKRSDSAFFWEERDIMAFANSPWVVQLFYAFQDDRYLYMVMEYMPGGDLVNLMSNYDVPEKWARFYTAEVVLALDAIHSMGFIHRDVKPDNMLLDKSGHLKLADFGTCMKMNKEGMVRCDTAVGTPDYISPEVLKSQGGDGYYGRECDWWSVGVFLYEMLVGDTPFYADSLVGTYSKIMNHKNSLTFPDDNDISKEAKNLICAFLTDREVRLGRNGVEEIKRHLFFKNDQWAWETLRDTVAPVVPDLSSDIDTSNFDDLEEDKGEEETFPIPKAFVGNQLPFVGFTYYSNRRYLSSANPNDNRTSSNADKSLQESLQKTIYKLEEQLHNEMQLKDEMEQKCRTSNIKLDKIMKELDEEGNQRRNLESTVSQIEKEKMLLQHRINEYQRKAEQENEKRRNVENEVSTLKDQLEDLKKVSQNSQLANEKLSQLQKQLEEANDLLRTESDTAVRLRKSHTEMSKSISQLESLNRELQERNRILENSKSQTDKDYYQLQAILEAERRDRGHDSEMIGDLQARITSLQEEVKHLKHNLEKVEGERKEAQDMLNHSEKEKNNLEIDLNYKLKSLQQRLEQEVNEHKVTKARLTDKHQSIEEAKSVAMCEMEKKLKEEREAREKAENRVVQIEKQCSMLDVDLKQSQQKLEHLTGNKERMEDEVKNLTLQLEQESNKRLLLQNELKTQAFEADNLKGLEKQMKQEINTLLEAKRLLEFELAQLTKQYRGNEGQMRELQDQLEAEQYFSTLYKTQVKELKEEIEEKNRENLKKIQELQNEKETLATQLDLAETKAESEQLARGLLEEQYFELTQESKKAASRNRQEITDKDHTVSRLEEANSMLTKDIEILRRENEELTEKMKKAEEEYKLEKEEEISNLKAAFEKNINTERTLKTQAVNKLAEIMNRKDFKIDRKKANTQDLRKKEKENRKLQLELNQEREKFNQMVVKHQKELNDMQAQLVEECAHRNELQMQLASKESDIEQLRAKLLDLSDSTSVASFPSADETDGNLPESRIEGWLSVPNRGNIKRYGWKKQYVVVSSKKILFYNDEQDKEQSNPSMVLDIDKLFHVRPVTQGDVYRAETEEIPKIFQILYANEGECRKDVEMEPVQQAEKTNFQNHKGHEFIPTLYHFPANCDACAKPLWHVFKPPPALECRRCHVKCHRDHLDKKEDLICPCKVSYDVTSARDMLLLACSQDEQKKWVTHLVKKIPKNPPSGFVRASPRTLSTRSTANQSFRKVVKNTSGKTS
Method: as §1

LIMK2 = LIMK2 (Homo sapiens, UniProt P53671); assay: Kinase screening; format: biochemical
Method: as §1

MAPK9 (JNK2) = MAPK9 (JNK2) (Homo sapiens, UniProt P45984); assay: Kinase screening; format: biochemical
Method: as §1

PIK3C2B (PI3K-C2 beta) = PIK3C2B (PI3K-C2 beta) (Homo sapiens, UniProt O00750); assay: Kinase screening; format: biochemical
Method: as §1

Rac1 = Rac1 (Homo sapiens, UniProt P63000); assay: 2D NMR spectroscopy binding assay; conditions: 50 μM Rac1 and 250 μM Compound 2
Method: (§2) Compound 1 was tested for its efficacy in binding with Rac1 in two independent binding assays, i.e., 2D NMR spectroscopy and Homologous time resolved fluorescence assay (HTRF).
(§3) In the 2D NMR assay, samples containing 50 μM Rac1 and 250 μM or 400 μM Compound 1 were used.
(§4) Compound 2 was tested for its efficacy in binding with Rac1 in two independent binding assays, i.e., 2D NMR spectroscopy and Homologous time resolved fluorescence assay (HTRF).
(§5) In the 2D NMR assay, a sample containing 50 μM Rac1 and 250 μM Compound 2 was used.

SEM cell line = assay: Annexin V flow assay for apoptosis and cell death, SEM; format: cell-based; conditions: Annexin V staining
From the text: FIGS. 3a-3c show three graphs illustrating the dose dependent inhibition of proliferation of Compound 1 in SEM, P12, and Loucy cells as measured by MTS assay. […] Compound 1 was further analyzed for its effect on cell apoptosis and cell death using a flow based assay using Annexin V staining.
Compound 2 was further analyzed for its effect on cell apoptosis and cell death using a flow based assay using Annexin V staining.

SEM cells = assay: Proliferation assay in SEM leukemia cells; format: cell-based; conditions: compared to Compound 1 (FIG. 12a)
Method: Dose Dependent Inhibition of Proliferation The 100 compounds selected from the initial in silico screen were assayed for inhibition of proliferation in two leukemia cell lines, SEM and P12 by Cell Titer Glo. The cells for the proliferation assay were spun down and re-suspended. The cell suspension was then divided and the compound to be tested added in desired concentrations and subsequently plated. Following an incubation period, the Cell Titer Glo reagent (Promega CellTiter 96® Aqueous Non-Radioactive Cell Proliferation Assay) was added and allowed to incubate. The absorbance is subsequently measured at 490 nm using a plate reader. Each compound was analyzed for its effects on cell proliferation.
The lead compound, i.e. Compound 1, was analyzed for its effect on cell proliferation at various doses on three different leukemia cell lines: SEM, P12, and Loucy. In order to quantitate the percentage inhibition of cell proliferation, Cell Titer Glo analysis was completed as described in Example 2 above.
FIGS. 3a-3c show three graphs illustrating the dose dependent inhibition of proliferation of Compound 1 in SEM, P12, and Loucy cells as measured by MTS assay. […] Compound 1 was further analyzed for its effect on cell apoptosis and cell death using a flow based assay using Annexin V staining. […]

P12-ICHIKAWA cells = assay: In vivo P12-ICHIKAWA leukemia model in NSG mice; conditions: 50 mg/Kg body weight oral twice daily; supine position, vs vehicle
Method: Specifically, cell line P12-ICHIKAWA was marked with a lentiviral vector coexpressing Luciferase and an mCherry fluorescent tag. Sorted mCherry positive P12-ICHIKAWA cells were injected into immunodeficient (NSG) mice. About 3 weeks after injection, based on an estimation of the tumor burden by quantitative assessment of bioluminescence imaging (BLI) in vivo, mice began treatment. Mice received twice daily oral doses of Compound 2 (50 mg/Kg body weight) or placebo. Each of the Compound 2 group and the vehicle group had eight mice. BLI analysis was performed three times a week to assess tumor burden. Toxicity was assessed by evaluating body weight in treated mice vs vehicle group (see FIG. 13a). The experiment was halted at day 18 after beginning of treatment due to the very aggressive nature of the disease in the vehicle group. Mice were imaged in the supine and prone position. FIG. 13b summarizes BLI values normalized to treatment start in both the compound 2 group and the vehicle group in the supine position.

Tiam1-Rac complex = Tiam1-Rac complex (Homo sapiens, UniProt P63000); assay: Homologous time resolved fluorescence (HTRF) binding assay
Method: as §2, §3, §4, §5

cancer cell = assay: Cellular proliferation assay of SAR analogs; format: cell-based; conditions: among 48 tested SAR analogs
Method: SAR was performed to identify analogs of Compound that have improved properties. 56 Compounds identified in this SAR study were synthesized. Among them, 48 compounds were tested a cellular proliferation assay.

`CCN(CC)CCCC(C)Nc1nc(C)cc(Nc2ccc3nc(C)cc(N)c3c2)n1.Cl.Cl.Cl` (racemic) [NSC23766, N6-[2-[[4-(diethylamino)-1-methylbutyl]amino]-6-methyl-4-pyrimidinyl]-2-methyl-4,6-quinolinediamine trihydrochloride, reference compound] showed an inhibition percentage (LIMK1) of −14.2 percentage, an inhibition percentage (MYLK (MLCK)) of 1.6 percentage and an inhibition percentage (FRAP1 (mTOR)) of 27.0 percentage. For the same compound, the inhibition percentage (AKT1 (PKB alpha)) was −23.3 percentage, the inhibition percentage (PAK2 (PAK65)) was 0.3 percentage and the inhibition percentage (JAK2) was 37.7 percentage. It also gave an inhibition percentage (IGF1R) of 42.9 percentage, an inhibition percentage (PAK6) of 8.9 percentage and an inhibition percentage [1] of −5.8 percentage. It also gave an inhibition percentage (ROCK2) of −14.7 percentage, an inhibition percentage (CDC42 BPB (MRCKB)) of −4.6 percentage and an inhibition percentage (CDK1/cyclin B) of 1.3 percentage. It also gave an inhibition percentage (PIK3C2A (PI3K-C2 alpha)) of −3.3 percentage, an inhibition percentage (MAPK8 (JNK1)) of −1.1 percentage and an inhibition percentage (KIT) of 26.3 percentage. The inhibition percentage (ABL1) was 19.3 percentage, the inhibition percentage (PAK7 (KIAA1264)) was 4.9 percentage and the inhibition percentage (JAK3) was 21.9 percentage. It also gave an inhibition percentage (MAPK3 (ERK1)) of 11.5 percentage, an inhibition percentage (EPHB1) of 19.8 percentage and an inhibition percentage (MAP3K2 (MEKK2)) of 14.3 percentage. The inhibition percentage (AKT2 (PKB beta)) was −22.9 percentage, the inhibition percentage (EGFR (ErbB1)) was 24.6 percentage and the inhibition percentage (PAK1) was 24.4 percentage. The inhibition percentage (CDC42 BPA (MRCKA)) was −1.8 percentage, the inhibition percentage (MAP2K2 (MEK2)) was 20.7 percentage and the inhibition percentage (SRC) was 43.6 percentage. The inhibition percentage (PAK4) was −0.2 percentage, the inhibition percentage [2] was −0.4 percentage and the inhibition percentage (PDGFRA (PDGFR alpha)) was 34.8 percentage. It also gave an inhibition percentage (FLT3) of 31.4 percentage, an inhibition percentage (SYK) of 39.4 percentage and an inhibition percentage (PIK3C3 (hVPS34)) of −17.8 percentage. For the same compound, the inhibition percentage (CDK5/p25) was 11.4 percentage, the inhibition percentage (PAK3) was 6.3 percentage and the inhibition percentage (JAK1) was 50.6 percentage. For the same compound, the inhibition percentage (ROCK1) was −2.0 percentage, the inhibition percentage (LIMK2) was −3.5 percentage and the inhibition percentage (MAPK9 (JNK2)) was −8.9 percentage. It also gave an inhibition percentage (PIK3C2B (PI3K-C2 beta)) of −1.8 percentage.

In the case of `CCc1ccc(CN(C)C(=O)CCc2nnc(CCc3c[nH]c4ccccc34)o2)cc1` [Compound 2], the “binding to Rac1 by 2D NMR” value (Rac1) is reported as “did not indicate any significant binding”, the “cell apoptosis and cell death” value (SEM cell line) is reported as “caused cells apoptosis and cell death” and the “efficacy in inhibiting proliferation of SEM cells” value (SEM cells) is reported as “improved efficacy”. The “bioluminescence in the mice” value (P12-ICHIKAWA cells) was “significantly reduced”, the “binding in the HTRF assay” value (Tiam1-Rac complex) was “no binding” and the “inhibition of cancer cell proliferation” value (cancer cell) was “strongest inhibition”.
